Assay results reported in ChEMBL document CHEMBL5463723, “Data for DCP probe BIBO3304” (2023).

Experiments:
[1] = molecular target: Transmembrane protein 97 (Cavia porcellus) (UniProt H0V073); assay: Activity against SIGMA2/GP in the Eurofins Panlabs screen (BI) by Radioactive Assay; details: Compound concentration 10.0 uM
[2] = molecular target: Somatostatin receptor type 5 (Mus musculus) (UniProt O08858); assay: Activity against SOMATOS/MO in the Eurofins Panlabs screen (BI) by Radioactive Assay; details: Compound concentration 10.0 uM
[3] = molecular target: Beta-2 adrenergic receptor (Homo sapiens) (UniProt P07550); assay: beta 2 Eurofins-Cerep binding assay; details: Compound concentration 10.0 uM
[4] = molecular target: cGMP-inhibited 3',5'-cyclic phosphodiesterase 3A (Homo sapiens) (UniProt Q14432); assay: Inhibitor of PDE3A in the Eurofins Cerep SafetyScreen44 (BI) by HTRF-homogeneous time resolved fluoresce (Cerep_4072); details: Compound concentration 10.0 uM
[5] = molecular target: Beta-2 adrenergic receptor (Rattus norvegicus) (UniProt P10608); assay: Activity against BETA2/R in the Eurofins Panlabs screen (BI) by Radioactive Assay; details: Compound concentration 10.0 uM
[6] = molecular target: Glutamate receptor ionotropic, NMDA 2A (Rattus norvegicus) (UniProt Q00959); assay: Activity against NMDAPHSI/R in the Eurofins Panlabs screen (BI) by Radioactive Assay; details: Compound concentration 10.0 uM
[7] = molecular target: D(2) dopamine receptor (Homo sapiens) (UniProt P14416); assay: Activity against D2HSPIP in the Eurofins Panlabs screen (BI); details: Compound concentration 10.0 uM
Sequence of D(2) dopamine receptor (Homo sapiens) (P14416 whole entry): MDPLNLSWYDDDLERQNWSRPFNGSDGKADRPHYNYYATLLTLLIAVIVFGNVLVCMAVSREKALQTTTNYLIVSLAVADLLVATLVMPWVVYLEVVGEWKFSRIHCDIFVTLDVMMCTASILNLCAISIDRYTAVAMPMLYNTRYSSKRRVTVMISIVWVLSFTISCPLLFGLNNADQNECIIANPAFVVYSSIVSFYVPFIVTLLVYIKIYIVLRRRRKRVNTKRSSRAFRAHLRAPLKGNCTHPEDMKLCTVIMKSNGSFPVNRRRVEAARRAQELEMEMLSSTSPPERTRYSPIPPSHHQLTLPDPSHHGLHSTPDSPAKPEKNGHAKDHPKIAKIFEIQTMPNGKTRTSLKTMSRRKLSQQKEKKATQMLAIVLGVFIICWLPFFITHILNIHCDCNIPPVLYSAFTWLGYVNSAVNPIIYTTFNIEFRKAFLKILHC

[8] = molecular target: Muscarinic acetylcholine receptor M2 (Rattus norvegicus) (UniProt P10980); assay: Activity against M2/R in the Eurofins Panlabs screen (BI) by Radioactive Assay; details: Compound concentration 10.0 uM
[9] = molecular target: Delta-type opioid receptor (Homo sapiens) (UniProt P41143); assay: delta (DOP) Eurofins-Cerep binding assay; design: ligand concentration 0.5 nM; details: Compound concentration 10.0 uM
[10] = molecular target: Prostaglandin G/H synthase 2 (Homo sapiens) (UniProt P35354); assay: Inhibitor of COX-2 in the Eurofins Cerep SafetyScreen44 (BI) by Fluorimetry (Cerep_4186); details: Compound concentration 10.0 uM
[11] = molecular target: Cholecystokinin receptor type A (Homo sapiens) (UniProt P32238); assay: CCK1 (CCKA) Eurofins-Cerep binding assay; design: ligand concentration 0.08 nM; details: Compound concentration 10.0 uM
[12] = molecular target: Potassium voltage-gated channel subfamily V member 1 (Rattus norvegicus) (UniProt P97557); assay: Activity against K+/KV/R in the Eurofins Panlabs screen (BI) by Radioactive Assay; details: Compound concentration 10.0 uM
[13] = molecular target: Polyunsaturated fatty acid 5-lipoxygenase (Homo sapiens) (UniProt P09917); assay: Activity against 5LO in the Eurofins Panlabs screen (BI) by Radioactive Assay; details: Compound concentration 30.0 uM
[14] = molecular target: Alpha-2A adrenergic receptor (Oryctolagus cuniculus) (UniProt Q5ZQK3); assay: Activity against ALPHA2A/RB in the Eurofins Panlabs screen (BI) by Radioactive Assay; details: Compound concentration 10.0 uM
Mus musculus = species: Mus musculus; assay: Inhibitor of PHORBOLE/M in the Eurofins Panlabs screen (BI) by Radioactive Assay; details: Compound concentration 10.0 uM
[15] = molecular target: Metabotropic glutamate receptor (Rattus norvegicus) (UniProt P31424+P70579+P31423+P31421+P31422+P35349+P35400+P23385); assay: Activity against GLUTAMAT/R in the Eurofins Panlabs screen (BI) by Radioactive Assay; type: protein assay; details: Compound concentration 10.0 uM
[16] = molecular target: Glucocorticoid receptor (Homo sapiens) (UniProt P04150); assay: Activity against GCORTIC/H in the Eurofins Panlabs screen (BI) by Radioactive Assay; details: Compound concentration 10.0 uM
[17] = molecular target: Neuropeptide Y receptor type 4 (Rattus norvegicus, UniProt Q63447); assay: Radioligand binding assay (rat NPY4R, CHO cells); type: cell-based
[18] = molecular target: Mu-type opioid receptor (Cavia porcellus) (UniProt P97266); assay: Activity against MU/GP in the Eurofins Panlabs screen (BI) by Radioactive Assay; details: Compound concentration 10.0 uM
Sequence of Mu-type opioid receptor (Cavia porcellus) (P97266 whole entry): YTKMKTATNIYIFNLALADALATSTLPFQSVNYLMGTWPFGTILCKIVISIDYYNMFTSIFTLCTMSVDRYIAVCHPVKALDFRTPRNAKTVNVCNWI

[19] = molecular target: Sodium-dependent noradrenaline transporter (Homo sapiens) (UniProt P23975); assay: norepinephrine transporter Eurofins-Cerep binding assay; design: ligand concentration 1 nM; details: Compound concentration 10.0 uM
[20] = molecular target: Voltage-dependent N-type calcium channel subunit alpha-1B (Rattus norvegicus) (UniProt Q02294); assay: Activity against CA+/N/RA in the Eurofins Panlabs screen (BI) by Radioactive Assay; details: Compound concentration 10.0 uM
Rattus norvegicus = species: Rattus norvegicus; assay: Activity against BZD/CENTR/R in the Eurofins Cerep SafetyScreen44 (BI) by Radioactive Assay (Cerep_28); type: protein-complex assay; details: Compound concentration 10.0 uM
[21] = molecular target: Nitric oxide synthase 3 (Rattus norvegicus) (UniProt Q62600); assay: Inhibitor of CNOS in the Eurofins Panlabs screen (BI) by Radioactive Assay; details: Compound concentration 10.0 uM
[22] = molecular target: Opioid receptor (Rattus norvegicus) (UniProt P33533+P34975+P33535); assay: Activity against OPIAT/NS in the Eurofins Panlabs screen (BI) by Radioactive Assay; type: protein assay; details: Compound concentration 10.0 uM
[23] = molecular target: Sodium-dependent serotonin transporter (Homo sapiens) (UniProt P31645); assay: 5-HT transporter Eurofins-Cerep binding assay; design: ligand concentration 2 nM; details: Compound concentration 10.0 uM
[24] = molecular target: Interleukin-6 receptor subunit alpha (Homo sapiens) (UniProt P08887); assay: Activity against IL-6/H in the Eurofins Panlabs screen (BI) by SPA - blue shifted; details: Compound concentration 10.0 uM
[25] = molecular target: Muscarinic acetylcholine receptor (Oryctolagus cuniculus) (UniProt A0A5F9DUN4); assay: Activity against M4/RB in the Eurofins Panlabs screen (BI) by Radioactive Assay; details: Compound concentration 10.0 uM
[26] = molecular target: 3',5'-cyclic-AMP phosphodiesterase 4D (Homo sapiens) (UniProt Q08499); assay: Inhibitor of PDE4D2 in the Eurofins Cerep SafetyScreen44 (BI) by Scintillation counting (Cerep_4077); details: Compound concentration 10.0 uM
Sequence of 3',5'-cyclic-AMP phosphodiesterase 4D (Homo sapiens) (Q08499 whole entry): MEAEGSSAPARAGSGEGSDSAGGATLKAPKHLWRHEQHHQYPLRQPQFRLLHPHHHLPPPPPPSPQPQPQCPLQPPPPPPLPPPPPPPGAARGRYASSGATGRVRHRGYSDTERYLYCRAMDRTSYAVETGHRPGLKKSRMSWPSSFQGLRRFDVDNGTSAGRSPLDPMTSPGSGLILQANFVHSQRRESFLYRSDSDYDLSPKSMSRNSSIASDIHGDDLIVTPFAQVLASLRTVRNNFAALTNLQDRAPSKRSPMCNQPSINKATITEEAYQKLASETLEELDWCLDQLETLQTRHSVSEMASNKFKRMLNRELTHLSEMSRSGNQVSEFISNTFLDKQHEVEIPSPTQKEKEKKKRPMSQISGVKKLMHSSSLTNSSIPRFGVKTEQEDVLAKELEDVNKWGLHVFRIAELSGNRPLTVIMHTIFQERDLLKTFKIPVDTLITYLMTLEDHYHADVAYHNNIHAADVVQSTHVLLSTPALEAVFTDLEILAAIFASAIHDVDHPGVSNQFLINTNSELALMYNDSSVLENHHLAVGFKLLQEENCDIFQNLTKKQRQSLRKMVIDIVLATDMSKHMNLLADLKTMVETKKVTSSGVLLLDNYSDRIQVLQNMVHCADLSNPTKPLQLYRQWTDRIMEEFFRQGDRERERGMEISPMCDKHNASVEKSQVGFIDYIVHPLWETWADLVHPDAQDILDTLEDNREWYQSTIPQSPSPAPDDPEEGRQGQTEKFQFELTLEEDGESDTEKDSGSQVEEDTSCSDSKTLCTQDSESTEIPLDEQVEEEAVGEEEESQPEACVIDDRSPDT

[27] = molecular target: Serotonin 2 (5-HT2) receptor (Rattus norvegicus) (UniProt P30994+P08909+P14842); assay: Activity against 5HT2/R in the Eurofins Panlabs screen (BI) by Radioactive Assay; type: protein assay; details: Compound concentration 10.0 uM
Sequence of Serotonin 2 (5-HT2) receptor (Rattus norvegicus) (P08909 whole entry, looked up): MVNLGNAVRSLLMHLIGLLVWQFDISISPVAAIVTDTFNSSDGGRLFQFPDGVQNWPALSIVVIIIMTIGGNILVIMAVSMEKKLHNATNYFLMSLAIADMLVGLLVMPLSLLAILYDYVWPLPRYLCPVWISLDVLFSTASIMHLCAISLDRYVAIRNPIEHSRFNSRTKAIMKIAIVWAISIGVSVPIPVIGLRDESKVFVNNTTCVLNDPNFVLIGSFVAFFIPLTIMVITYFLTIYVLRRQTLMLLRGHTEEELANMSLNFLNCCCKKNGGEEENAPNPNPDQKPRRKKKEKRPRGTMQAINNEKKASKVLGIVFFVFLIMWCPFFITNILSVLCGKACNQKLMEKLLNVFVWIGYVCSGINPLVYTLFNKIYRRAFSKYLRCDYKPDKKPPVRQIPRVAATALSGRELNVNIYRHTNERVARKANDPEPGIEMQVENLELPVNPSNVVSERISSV
Sequence of Serotonin 2 (5-HT2) receptor (Rattus norvegicus) (P14842 whole entry, looked up): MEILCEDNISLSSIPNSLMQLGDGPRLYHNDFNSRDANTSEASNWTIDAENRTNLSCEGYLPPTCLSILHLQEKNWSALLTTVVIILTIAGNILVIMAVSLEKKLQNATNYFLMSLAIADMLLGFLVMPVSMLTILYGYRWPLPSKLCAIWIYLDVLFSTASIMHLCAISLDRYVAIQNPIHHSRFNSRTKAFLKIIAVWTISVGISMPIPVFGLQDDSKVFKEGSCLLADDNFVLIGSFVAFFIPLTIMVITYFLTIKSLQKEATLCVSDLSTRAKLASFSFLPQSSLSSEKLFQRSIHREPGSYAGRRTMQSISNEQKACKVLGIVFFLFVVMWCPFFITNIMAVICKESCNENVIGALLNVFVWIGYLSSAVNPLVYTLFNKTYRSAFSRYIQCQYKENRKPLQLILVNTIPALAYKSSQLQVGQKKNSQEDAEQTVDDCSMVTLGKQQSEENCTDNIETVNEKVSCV
Sequence of Serotonin 2 (5-HT2) receptor (Rattus norvegicus) (P30994 whole entry, looked up): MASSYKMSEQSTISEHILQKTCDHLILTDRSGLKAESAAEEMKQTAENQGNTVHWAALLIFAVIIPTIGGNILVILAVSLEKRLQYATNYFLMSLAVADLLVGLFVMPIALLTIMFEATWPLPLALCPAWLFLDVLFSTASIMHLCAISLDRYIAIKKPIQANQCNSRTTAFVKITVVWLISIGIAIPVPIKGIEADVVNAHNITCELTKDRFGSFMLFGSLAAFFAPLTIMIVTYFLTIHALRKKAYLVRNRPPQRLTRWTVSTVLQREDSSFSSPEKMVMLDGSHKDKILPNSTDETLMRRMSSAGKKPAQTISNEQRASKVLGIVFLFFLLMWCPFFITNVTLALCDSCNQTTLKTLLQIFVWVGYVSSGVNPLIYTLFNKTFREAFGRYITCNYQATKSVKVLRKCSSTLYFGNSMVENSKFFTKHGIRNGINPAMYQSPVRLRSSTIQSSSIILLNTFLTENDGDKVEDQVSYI

[28] = molecular target: Glutamate receptor ionotropic, kainate 1 (Rattus norvegicus) (UniProt P22756); assay: Activity against KAINATE/R in the Eurofins Panlabs screen (BI) by Radioactive Assay; details: Compound concentration 10.0 uM
[29] = molecular target: Sodium-dependent dopamine transporter (Homo sapiens) (UniProt Q01959); assay: dopamine transporter Eurofins-Cerep binding assay; details: Compound concentration 10.0 uM
[30] = molecular target: Neuropeptide Y receptor type 2 (Rattus norvegicus, UniProt Q9ERC0); assay: Radioligand binding assay (NPY2R, rat hippocampus); type: tissue-based
[31] = molecular target: Insulin receptor (Rattus norvegicus) (UniProt P15127); assay: Activity against INSULIN/R in the Eurofins Panlabs screen (BI) by Radioactive Assay; details: Compound concentration 10.0 uM
Sequence of Insulin receptor (Rattus norvegicus) (P15127 27-759 limits assumed): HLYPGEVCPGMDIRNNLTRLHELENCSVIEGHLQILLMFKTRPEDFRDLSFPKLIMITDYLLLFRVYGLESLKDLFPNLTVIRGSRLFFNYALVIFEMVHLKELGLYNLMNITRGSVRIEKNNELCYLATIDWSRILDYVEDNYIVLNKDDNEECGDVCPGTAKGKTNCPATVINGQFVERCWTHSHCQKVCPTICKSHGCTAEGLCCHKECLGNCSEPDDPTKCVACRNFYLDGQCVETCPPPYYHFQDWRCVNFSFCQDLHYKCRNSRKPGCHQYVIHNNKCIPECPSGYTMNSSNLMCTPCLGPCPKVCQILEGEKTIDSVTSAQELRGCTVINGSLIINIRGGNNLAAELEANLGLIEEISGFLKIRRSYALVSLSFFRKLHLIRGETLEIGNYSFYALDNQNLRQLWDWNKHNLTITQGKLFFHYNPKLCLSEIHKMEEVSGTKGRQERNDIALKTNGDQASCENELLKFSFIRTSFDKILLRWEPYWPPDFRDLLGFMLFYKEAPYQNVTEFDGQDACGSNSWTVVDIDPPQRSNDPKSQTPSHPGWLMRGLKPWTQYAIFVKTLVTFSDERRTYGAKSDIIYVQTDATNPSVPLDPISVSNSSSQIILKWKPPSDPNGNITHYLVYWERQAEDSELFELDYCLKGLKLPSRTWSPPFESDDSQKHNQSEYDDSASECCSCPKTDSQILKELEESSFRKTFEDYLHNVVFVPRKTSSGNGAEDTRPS
Sequence of Insulin receptor (Rattus norvegicus) (P15127 764-1383 limits assumed): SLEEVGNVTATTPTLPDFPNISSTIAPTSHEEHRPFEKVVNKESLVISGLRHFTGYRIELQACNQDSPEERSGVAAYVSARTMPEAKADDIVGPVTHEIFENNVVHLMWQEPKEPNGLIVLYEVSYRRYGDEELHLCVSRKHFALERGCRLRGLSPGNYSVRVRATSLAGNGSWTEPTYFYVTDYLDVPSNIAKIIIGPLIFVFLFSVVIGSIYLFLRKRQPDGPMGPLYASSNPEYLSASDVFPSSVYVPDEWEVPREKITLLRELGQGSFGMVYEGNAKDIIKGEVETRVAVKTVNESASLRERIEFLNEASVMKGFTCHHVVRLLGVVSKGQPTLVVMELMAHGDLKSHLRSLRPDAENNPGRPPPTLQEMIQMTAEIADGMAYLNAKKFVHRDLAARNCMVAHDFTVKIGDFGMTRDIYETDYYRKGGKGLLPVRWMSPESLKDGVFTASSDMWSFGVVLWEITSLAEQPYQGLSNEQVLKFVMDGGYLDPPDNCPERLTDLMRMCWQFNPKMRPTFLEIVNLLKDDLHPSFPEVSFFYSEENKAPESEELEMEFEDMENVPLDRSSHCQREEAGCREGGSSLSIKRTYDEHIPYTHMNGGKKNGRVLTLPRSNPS

[32] = molecular target: Gamma-aminobutyric acid receptor subunit alpha-1 (Rattus norvegicus) (UniProt P62813); assay: Activity against GABAACL+ in the Eurofins Panlabs screen (BI) by Radioactive Assay; details: Compound concentration 10.0 uM
Sequence of Gamma-aminobutyric acid receptor subunit alpha-1 (Rattus norvegicus) (P62813 whole entry): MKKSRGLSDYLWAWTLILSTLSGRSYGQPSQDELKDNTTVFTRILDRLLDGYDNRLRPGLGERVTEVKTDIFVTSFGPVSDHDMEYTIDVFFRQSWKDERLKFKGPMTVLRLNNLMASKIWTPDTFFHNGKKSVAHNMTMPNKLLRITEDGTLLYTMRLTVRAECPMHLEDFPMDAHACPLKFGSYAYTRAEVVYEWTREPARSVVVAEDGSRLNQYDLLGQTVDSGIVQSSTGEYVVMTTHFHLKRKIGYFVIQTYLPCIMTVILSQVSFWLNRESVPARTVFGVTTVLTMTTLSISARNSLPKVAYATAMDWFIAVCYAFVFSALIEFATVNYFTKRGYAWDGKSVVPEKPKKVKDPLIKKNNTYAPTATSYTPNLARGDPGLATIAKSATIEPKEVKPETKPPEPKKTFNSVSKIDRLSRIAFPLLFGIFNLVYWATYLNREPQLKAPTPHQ

[33] = molecular target: 3-hydroxy-3-methylglutaryl-coenzyme A reductase (Rattus norvegicus) (UniProt P51639); assay: Inhibitor of HMGCOARED in the Eurofins Panlabs screen (BI) by Radioactive Assay; details: Compound concentration 30.0 uM
[34] = molecular target: D(2) dopamine receptor (Homo sapiens) (UniProt P14416); assay: Agonist activity in the Eurofins Cerep SafetyScreen44 (BI) against D2SH_AGON by Scintillation counting (Cerep_1322); details: Compound concentration 10.0 uM
[35] = molecular target: Adenosine receptor A1 (Rattus norvegicus) (UniProt P25099); assay: Activity against A1/R in the Eurofins Panlabs screen (BI) by Radioactive Assay; details: Compound concentration 10.0 uM
[36] = molecular target: 5-hydroxytryptamine receptor 1B (Homo sapiens) (UniProt P28222); assay: 5-HT1B Eurofins-Cerep binding assay; design: ligand concentration 1 nM; details: Compound concentration 10.0 uM
[37] = molecular target: Histamine H2 receptor (Homo sapiens) (UniProt P25021); assay: H2 Eurofins-Cerep binding assay; design: ligand concentration 0.075 nM; details: Compound concentration 10.0 uM

Sequence of Transmembrane protein 97 (Cavia porcellus) (H0V073 as listed by the source): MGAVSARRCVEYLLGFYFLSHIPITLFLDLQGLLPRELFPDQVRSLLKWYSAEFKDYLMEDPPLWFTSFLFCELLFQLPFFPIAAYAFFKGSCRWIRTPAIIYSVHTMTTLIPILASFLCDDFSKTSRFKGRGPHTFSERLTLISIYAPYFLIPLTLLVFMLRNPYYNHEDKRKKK

N=C(N)NCCC[C@@H](NC(=O)C(c1ccccc1)c1ccccc1)C(=O)NCc1ccc(CNC(N)=O)cc1
residual activity [1]: 109%
residual activity [2]: 103%
residual activity [3]: 108%
residual activity [4]: 84%
residual activity [5]: 77%
residual activity [6]: 77%
residual activity [7]: 97%
residual activity [8]: 98%
residual activity [9]: 80%
residual activity [10]: 61%
residual activity [11]: 66%
residual activity [12]: 89%
residual activity [13]: 97%
residual activity [14]: 82%
residual activity (Mus musculus): 95%
residual activity [15]: 95%
residual activity [16]: 86%
IC50 [17]: > 10 µM (not active)
residual activity [18]: 104%
residual activity [19]: 91%
residual activity [20]: 110%
residual activity (Rattus norvegicus): 83%
residual activity [21]: 104%
residual activity [22]: 114%
residual activity [23]: 84%
residual activity [24]: 87%
residual activity [25]: 110%
residual activity [26]: 91%
residual activity [27]: 92%
residual activity [28]: 103%
residual activity [29]: 79%
IC50 [30]: > 10 µM (not active)
residual activity [31]: 98%
residual activity [32]: 84%
residual activity [33]: 98%
residual activity [34]: 40%
residual activity [35]: 99%
residual activity [36]: 60%
residual activity [37]: 117%
